We go through 9 compounds from patent US20230148005A1, “MACROCYCLIC COMPOUNDS AND USES THEREOF” (THESEUS PHARMACEUTICALS, INC., priority 2020, published 2023).

pIC50: −log10 of the molar value.

Broadly, the pIC50 is the negative decadic logarithm of the IC50, by convention in mol/L.

Test [1] concerns the target EGFR^L858R (Homo sapiens, UniProt P00533, L858R). Briefly: in vitro kinase assay (HTRF KinEASE-TK kit), L. It is filed as biochemical. The conditions noted are these: kinase inhibition. The source says: (§1) Assays using an in vitro kinase assay kit (HTRF KinEASE-TK kit) can be used to study the inhibitory activity of compounds described herein with respect to EGFR mutants such as EGFR^L858R, EGFR^L58R/T790M, and EGFR^L858R/T790M/C^797S.
For orientation: In TR-FRET formats the signal depends on donor and acceptor labels being close together.

Test [2] deals with Ba/F3 EGFR-Del19/T790M (Homo sapiens, UniProt P00533, T790M, cells depend on it, form not given). In words: Ba/F3 viability assay (CellTiter-Glo), DT. It is filed as cell-based. The conditions noted are these: anti-proliferation, read-out: BaF3 DT IC50. The source says:
(§2) Inhibition of cell proliferation can be studied using Ba/F3 viability assays, including the Promega CellTiter-Glo cell viability assay. This assay can be used to study the effect of compounds described herein in the following assays: (1) Ba/F3 Parental; (2) Ba/F3 EGFR-Del19/T790M; (3); Ba/F3 EGFR-Del19/C797S; and (4) Ba/F3 EGFR-Del19/T790M/C797S.
On the technique in general: ATP-based viability assays read luminescence as a measure of living cells.

The target of test [3] is Ba/F3 EGFR-Del19/C797S (Homo sapiens, UniProt P00533, C797S, cells depend on it, form not given). In words: Ba/F3 viability assay (CellTiter-Glo), DC. The format is cell-based. The settings on record: anti-proliferation, read-out: BaF3 DC IC50.
From the text: as §2

The target of test [4] is EGFR^L858R/T790M/C^797S (Homo sapiens, UniProt P00533, C797S/L858R/T790M). Briefly: in vitro kinase assay (HTRF KinEASE-TK kit), LTC. The format is biochemical. The settings on record: kinase inhibition.
From the text: as §1

Test [5] has as its target Ba/F3 EGFR-Del19/T790M/C797S (Homo sapiens, UniProt P00533, T790M/C797S, cells depend on it, form not given). In words: Ba/F3 viability assay (CellTiter-Glo), DTC. The format is cell-based. The conditions noted are these: anti-proliferation, read-out: BaF3 DTC IC50.
From the text: as §2

Test [6] deals with Ba/F3 Parental. In words: Ba/F3 viability assay (CellTiter-Glo), parental. It is filed as cell-based. The settings on record: Mus musculus, BaF3, anti-proliferation.
From the text: as §2

In test [7] the target is EGFR^L58R/T790M (Homo sapiens, UniProt P00533, L858R/T790M). Briefly: in vitro kinase assay (HTRF KinEASE-TK kit), LT. The format is biochemical. The conditions noted are these: kinase inhibition.
From the text: as §1

Ba/F3 EGFR-Del19/C797S, sequence (P00533 with tags, fused parts or gaps DEL746-750/C797S, form open): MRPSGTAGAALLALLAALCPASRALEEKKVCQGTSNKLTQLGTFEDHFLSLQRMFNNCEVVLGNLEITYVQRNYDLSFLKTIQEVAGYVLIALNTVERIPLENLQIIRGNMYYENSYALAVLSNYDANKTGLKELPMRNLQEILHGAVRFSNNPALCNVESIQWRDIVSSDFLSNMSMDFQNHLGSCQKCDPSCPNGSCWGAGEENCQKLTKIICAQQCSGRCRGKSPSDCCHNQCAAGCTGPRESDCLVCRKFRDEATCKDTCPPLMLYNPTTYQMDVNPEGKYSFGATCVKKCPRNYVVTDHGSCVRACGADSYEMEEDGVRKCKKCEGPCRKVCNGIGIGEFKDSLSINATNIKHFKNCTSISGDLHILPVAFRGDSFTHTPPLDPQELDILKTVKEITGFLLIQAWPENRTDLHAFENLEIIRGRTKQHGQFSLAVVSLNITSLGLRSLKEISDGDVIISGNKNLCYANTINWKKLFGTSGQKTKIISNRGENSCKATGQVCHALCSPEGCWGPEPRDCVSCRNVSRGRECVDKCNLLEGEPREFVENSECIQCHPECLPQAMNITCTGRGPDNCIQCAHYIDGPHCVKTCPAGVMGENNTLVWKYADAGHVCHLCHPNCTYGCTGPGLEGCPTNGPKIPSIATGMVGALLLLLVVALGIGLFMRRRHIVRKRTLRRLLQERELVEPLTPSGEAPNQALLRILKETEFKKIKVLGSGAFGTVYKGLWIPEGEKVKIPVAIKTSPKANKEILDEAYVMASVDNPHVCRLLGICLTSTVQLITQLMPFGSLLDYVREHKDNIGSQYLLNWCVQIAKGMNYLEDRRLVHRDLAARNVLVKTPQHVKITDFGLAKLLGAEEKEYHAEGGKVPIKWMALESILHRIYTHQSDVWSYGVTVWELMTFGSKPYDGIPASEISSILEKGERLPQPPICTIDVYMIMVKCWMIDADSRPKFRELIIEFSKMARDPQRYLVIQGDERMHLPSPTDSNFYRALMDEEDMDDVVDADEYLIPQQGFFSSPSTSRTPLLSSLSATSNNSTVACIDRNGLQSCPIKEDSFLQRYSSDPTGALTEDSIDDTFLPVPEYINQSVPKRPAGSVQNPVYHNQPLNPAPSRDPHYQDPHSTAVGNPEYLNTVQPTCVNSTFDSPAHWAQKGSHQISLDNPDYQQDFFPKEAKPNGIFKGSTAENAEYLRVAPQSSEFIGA
EGFR^L58R/T790M, sequence (P00533 25-1210 T790M/L858R): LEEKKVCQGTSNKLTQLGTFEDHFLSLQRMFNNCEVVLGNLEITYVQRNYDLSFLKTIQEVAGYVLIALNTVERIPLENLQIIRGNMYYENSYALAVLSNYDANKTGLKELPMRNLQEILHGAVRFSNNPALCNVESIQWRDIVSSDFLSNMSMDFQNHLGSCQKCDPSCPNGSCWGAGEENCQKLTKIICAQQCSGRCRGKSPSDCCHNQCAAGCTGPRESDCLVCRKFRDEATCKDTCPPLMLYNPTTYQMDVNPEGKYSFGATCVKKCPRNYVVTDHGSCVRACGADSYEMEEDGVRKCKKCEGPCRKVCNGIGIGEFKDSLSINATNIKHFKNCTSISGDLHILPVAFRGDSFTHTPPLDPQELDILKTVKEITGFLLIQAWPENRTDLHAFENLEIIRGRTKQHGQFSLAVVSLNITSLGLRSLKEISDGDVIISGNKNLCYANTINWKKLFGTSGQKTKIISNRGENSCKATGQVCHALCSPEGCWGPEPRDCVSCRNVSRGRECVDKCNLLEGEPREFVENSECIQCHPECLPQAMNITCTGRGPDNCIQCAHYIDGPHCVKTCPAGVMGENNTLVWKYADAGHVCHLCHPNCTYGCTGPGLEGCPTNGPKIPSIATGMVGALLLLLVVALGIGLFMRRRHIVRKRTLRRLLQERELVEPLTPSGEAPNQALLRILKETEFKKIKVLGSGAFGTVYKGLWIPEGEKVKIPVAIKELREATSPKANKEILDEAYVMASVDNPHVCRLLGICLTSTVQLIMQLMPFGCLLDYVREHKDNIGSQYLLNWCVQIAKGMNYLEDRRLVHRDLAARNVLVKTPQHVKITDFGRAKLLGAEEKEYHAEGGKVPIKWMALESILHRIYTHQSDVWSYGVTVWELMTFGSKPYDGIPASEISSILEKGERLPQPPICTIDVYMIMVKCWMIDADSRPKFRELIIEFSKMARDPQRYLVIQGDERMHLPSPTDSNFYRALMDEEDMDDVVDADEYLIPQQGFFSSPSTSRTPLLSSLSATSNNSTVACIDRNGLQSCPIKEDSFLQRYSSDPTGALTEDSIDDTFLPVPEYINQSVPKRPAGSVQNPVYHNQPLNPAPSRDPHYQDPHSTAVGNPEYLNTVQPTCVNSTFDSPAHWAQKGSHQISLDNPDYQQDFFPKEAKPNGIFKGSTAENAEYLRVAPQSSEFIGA
Ba/F3 EGFR-Del19/T790M, sequence (P00533 with tags, fused parts or gaps DEL746-750/T790M, form open): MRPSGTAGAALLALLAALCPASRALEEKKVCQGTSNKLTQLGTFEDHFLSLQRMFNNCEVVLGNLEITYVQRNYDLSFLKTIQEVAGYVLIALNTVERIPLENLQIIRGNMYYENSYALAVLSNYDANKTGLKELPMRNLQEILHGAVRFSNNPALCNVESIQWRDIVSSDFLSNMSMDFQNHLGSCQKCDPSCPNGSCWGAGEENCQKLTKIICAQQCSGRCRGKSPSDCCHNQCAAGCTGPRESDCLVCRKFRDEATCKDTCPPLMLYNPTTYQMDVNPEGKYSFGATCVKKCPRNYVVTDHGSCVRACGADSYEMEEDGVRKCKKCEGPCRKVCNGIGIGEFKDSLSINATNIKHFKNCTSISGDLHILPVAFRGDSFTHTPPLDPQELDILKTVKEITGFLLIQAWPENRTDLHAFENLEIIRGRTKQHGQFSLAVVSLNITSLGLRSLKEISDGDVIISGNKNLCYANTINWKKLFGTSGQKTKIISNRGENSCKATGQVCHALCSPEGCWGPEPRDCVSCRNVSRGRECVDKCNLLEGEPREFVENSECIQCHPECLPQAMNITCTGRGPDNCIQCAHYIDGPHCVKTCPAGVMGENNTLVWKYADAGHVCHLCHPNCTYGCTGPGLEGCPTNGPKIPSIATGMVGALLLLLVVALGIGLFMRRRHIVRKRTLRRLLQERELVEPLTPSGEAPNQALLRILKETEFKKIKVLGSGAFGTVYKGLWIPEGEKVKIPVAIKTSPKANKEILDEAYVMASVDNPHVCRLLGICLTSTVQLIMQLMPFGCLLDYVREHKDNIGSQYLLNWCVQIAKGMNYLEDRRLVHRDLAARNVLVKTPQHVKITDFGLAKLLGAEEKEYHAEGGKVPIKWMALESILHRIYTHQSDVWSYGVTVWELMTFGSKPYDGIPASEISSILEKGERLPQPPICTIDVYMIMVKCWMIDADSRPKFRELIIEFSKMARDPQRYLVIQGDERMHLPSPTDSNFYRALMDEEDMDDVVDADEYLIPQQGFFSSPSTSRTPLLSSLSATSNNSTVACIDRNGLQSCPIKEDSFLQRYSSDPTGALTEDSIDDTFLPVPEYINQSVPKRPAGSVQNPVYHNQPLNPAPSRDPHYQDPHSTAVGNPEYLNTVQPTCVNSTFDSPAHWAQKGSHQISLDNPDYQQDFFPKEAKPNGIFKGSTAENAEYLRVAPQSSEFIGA
EGFR^L858R/T790M/C^797S, sequence (P00533 25-1210 T790M/C797S/L858R): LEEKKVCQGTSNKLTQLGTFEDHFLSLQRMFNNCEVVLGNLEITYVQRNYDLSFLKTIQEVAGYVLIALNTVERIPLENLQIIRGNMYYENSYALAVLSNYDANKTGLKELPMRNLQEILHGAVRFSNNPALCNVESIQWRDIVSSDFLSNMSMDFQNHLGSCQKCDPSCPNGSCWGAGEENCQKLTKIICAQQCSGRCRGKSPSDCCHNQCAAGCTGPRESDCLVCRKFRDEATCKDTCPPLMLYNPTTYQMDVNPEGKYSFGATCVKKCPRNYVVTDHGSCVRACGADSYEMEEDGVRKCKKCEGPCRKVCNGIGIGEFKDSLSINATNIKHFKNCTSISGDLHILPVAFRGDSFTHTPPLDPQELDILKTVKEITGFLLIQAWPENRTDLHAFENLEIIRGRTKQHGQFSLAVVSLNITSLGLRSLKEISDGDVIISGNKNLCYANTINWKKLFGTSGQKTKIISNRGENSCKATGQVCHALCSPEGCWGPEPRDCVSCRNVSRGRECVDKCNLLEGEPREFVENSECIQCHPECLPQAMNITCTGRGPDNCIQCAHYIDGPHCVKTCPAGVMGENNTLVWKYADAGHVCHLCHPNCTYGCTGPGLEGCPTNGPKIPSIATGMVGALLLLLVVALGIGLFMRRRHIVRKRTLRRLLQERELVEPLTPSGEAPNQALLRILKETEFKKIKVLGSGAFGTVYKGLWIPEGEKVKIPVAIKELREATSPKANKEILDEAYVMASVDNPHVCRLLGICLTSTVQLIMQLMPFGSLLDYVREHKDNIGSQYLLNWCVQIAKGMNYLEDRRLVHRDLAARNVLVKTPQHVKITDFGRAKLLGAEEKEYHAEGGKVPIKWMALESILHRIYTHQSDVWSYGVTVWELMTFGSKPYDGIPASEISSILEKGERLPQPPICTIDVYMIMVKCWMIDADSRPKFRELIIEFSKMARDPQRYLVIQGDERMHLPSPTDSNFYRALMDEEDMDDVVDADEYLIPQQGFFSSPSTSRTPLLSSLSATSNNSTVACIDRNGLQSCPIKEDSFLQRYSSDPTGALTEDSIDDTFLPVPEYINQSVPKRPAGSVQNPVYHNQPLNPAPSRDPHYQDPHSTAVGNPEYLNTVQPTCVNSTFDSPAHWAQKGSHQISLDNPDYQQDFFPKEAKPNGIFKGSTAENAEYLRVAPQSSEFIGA

As to `C[C@H]1CCOc2c(cnn2C)-c2nccc(n2)Nc2cc3c(cn2)c(-c2cc(CN4CCOCC4)n(C)n2)nn31` [(105)], the pIC50 is above 8.00 in test [1], above 8.00 in test [4], at most 6.00 in test [6] and above 8.00 in test [7]. Besides, the GI50 in test [2] is below 10 nM; in test [3], 10 to 100 nM; in test [5], below 10 nM.

With `C[C@H]1CCOc2c(cnn2C)-c2nccc(n2)Nc2cc3c(cn2)c(-c2ccc(CN4CCOCC4)o2)nn31` [(164)], the pIC50 in test [1] was above 8.00; in test [4], above 8.00; in test [6], 6.00 to 7.00; in test [7] it was above 8.00. The GI50 was below 10 nM in test [2], 10 to 100 nM in test [3] and below 10 nM in test [5].

Turning to `C[C@H]1CCOc2c(cnn2C)-c2nccc(n2)Nc2cc3c(cn2)c(-c2ccn(C)c2)nn31` [(109)], the pIC50 was above 8.00 in test [1], above 8.00 in test [4], 6.00 to 7.00 in test [6] and above 8.00 in test [7]. In addition, the GI50 in test [2], in test [3] and in test [5] was below 10 nM in each case.

Regarding `C[C@H]1CCOc2c(cnn2C)-c2nccc(n2)Nc2cc3c(cn2)c(-c2ccc(CN4CCN(C5COC5)CC4)n2C)nn31` [(124)], the negative logarithm of the IC50 (pIC50) in test [1] is above 8.00; in test [4] it was above 8.00; in test [6] it was 6.00 to 7.00; in test [7], above 8.00. The GI50 in test [2], in test [3] and in test [5] was below 10 nM each time.

With `C[C@H]1CCOc2c(cnn2C)-c2nccc(n2)Nc2cc3c(cn2)c(-c2cccc(OCCN4CCOCC4)c2)nn31` [(145), (16S)-11,16-dimethyl-19-[3-(2-morpholinoethoxy)phenyl]-13-oxa-2,6,10,11,17,18,22,25-octazapentacyclo[15.5.2.1^3,7.0^8,12.0^20,24]pentacosa-1(22),3,5,7(25),8(12),9,18,20,23-nonaene], the pIC50 in test [1] is above 8.00; in test [4], above 8.00; in test [6] it was 6.00 to 7.00; in test [7], above 8.00. The GI50 in test [2] was below 10 nM; in test [3] it was 10 to 100 nM; in test [5], below 10 nM.

For `C[C@H]1CCOc2c(cnn2C)-c2nccc(n2)Nc2cc3c(cn2)c(-c2cccc(N4CCC(N5CCN(C)CC5)CC4)c2)nn31` [(173)], the pIC50 in test [1] is above 8.00; in test [4], above 8.00; in test [6], 6.00 to 7.00; in test [7] it was above 8.00. Besides, the GI50 in test [2], in test [3] and in test [5] was below 10 nM each time.

With `C[C@H]1CCOc2c(cnn2C)-c2nccc(n2)Nc2cc3c(cn2)c(-c2cccc(N4CC[C@@H](N(C)C)C4)c2)nn31` [(166)], the pIC50 in test [1] was above 8.00; in test [4], above 8.00; in test [6] it was 6.00 to 7.00; in test [7], above 8.00. The GI50 in test [2], in test [3] and in test [5] was below 10 nM in each case.

Take `C[C@H]1CCOc2c(cnn2C)-c2nccc(n2)Nc2cc3c(cn2)c(-c2ccc(CN4CCN(C5CC5)CC4)n2C)nn31` [(123)]: the pIC50 in test [1] is above 8.00; in test [4] it was above 8.00; in test [6], 6.00 to 7.00; in test [7], above 8.00. The GI50 in test [2], in test [3] and in test [5] was below 10 nM in each case.

Turning to `CC1CCOc2c(cnn2C)-c2nccc(n2)Nc2cc3c(cn2)c(-c2cccn2CCN(C)C)nn31` (stereo not drawn) [(12), 2-[2-(11,16-dimethyl-13-oxa-2,6,10,11,17,18,22,25-octazapentacyclo[15.5.2.13,7.08,12.020,24]pentacosa-1(22),3,5,7(25),8(12),9,18,20,23-nonaen-19-yl)pyrrol-1-yl]-N,N-dimethyl-ethanamine], the pIC50 in test [1] was 7.00 to 8.00; in test [4], above 8.00; in test [6] it was 6.00 to 7.00; in test [7], above 8.00. Also, the GI50 in test [2], in test [3] and in test [5] was 10 to 100 nM in each case.
